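Values below derive from 48-hour exposures of cells grown in 96-well plates, with endpoints linearly interpolated between the two concentrations bracketing the appropriate inhibition level. TGI: concentration producing complete growth inhibition.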

The record followed here is PubChem BioAssay (NCI).

Test systems include CCRF-CEM leukemia; HOP-62 NSCLC; HOP-92 NSCLC; KM12 colon; LOX IMVI melanoma; M14 melanoma; MALME-3M melanoma; NCI-H226 lung; NCI/ADR-RES ovarian; PC-3 prostate; RXF 393 renal; SF-268 CNS; SF-539 CNS; SK-MEL-28 melanoma; UACC-257 melanoma; UACC-62 melanoma.
Common to all, as to test: NCI tumour cell line growth inhibition, 48 h

Take `CN1C2CCC1CC(CCNC(c1ccccc1)c1ccccc1)C2` (stereo unspecified): the TGI with CCRF-CEM leukemia is greater than 100 µM; in the assay with HOP-62 NSCLC it was 50.9 µM; with HOP-92 NSCLC, 43.2 µM; in the assay with KM12 colon, greater than 100 µM; with LOX IMVI melanoma it was 59.8 µM; in the assay with M14 melanoma it was 24.9 µM. In addition, the TGI is 31.4 µM in the assay with MALME-3M melanoma; greater than 100 µM in the assay on NCI-H226 lung; greater than 100 µM in the assay on NCI/ADR-RES ovarian; greater than 100 µM with PC-3 prostate; 39.1 µM with RXF 393 renal; greater than 100 µM in the assay on SF-268 CNS. Moreover, the TGI in the assay on SF-539 CNS came to 35.7 µM; in the assay on SK-MEL-28 melanoma, 34.2 µM; in the assay on UACC-257 melanoma, 31.8 µM.

Regarding `COC(=O)C(NC(=O)c1ccccc1)c1ccco1` (stereo unspecified), the TGI in the assay on CCRF-CEM leukemia, with HOP-62 NSCLC, in the assay on HOP-92 NSCLC, in the assay on KM12 colon, in the assay with M14 melanoma and in the assay with MALME-3M melanoma was greater than 100 µM in each case. The TGI with NCI-H226 lung, with NCI/ADR-RES ovarian, in the assay with PC-3 prostate, with RXF 393 renal, with SF-268 CNS and in the assay with SF-539 CNS was greater than 100 µM in each case. The TGI in the assay on SK-MEL-28 melanoma, in the assay with UACC-257 melanoma and in the assay with UACC-62 melanoma was greater than 100 µM throughout.

As for `O=C1C(Cl)C(c2cccc(Cl)c2)N1c1ccc(-n2c(=S)[nH]c3ccccc3c2=O)cc1` (stereo unspecified), the TGI with CCRF-CEM leukemia is 77.5 µM; in the assay with HOP-62 NSCLC, 73.8 µM; in the assay with HOP-92 NSCLC it was 94.5 µM; in the assay with KM12 colon it was greater than 100 µM; with LOX IMVI melanoma it was 42.5 µM; with M14 melanoma, 58.7 µM. Moreover, the TGI with MALME-3M melanoma was greater than 100 µM; in the assay with NCI-H226 lung it was 73.8 µM; in the assay on NCI/ADR-RES ovarian it was 70.8 µM; in the assay with PC-3 prostate, greater than 100 µM; with RXF 393 renal, 29 µM; in the assay with SF-268 CNS, 39 µM. In addition, the TGI was 54.6 µM with SF-539 CNS, 98.6 µM in the assay on UACC-257 melanoma and 31.5 µM with UACC-62 melanoma.

Take `Cc1ccc(N=Nc2c(C)c(C#N)c(=S)n(C3OC(CO)C(O)C(O)C3O)c2C)cc1` (stereo unspecified): the TGI in the assay on CCRF-CEM leukemia is greater than 100 µM; in the assay on HOP-62 NSCLC it was 84.9 µM; with HOP-92 NSCLC, 49.3 µM; with KM12 colon, greater than 100 µM; in the assay with LOX IMVI melanoma, 45 µM; in the assay with M14 melanoma, 41.7 µM. The TGI in the assay on MALME-3M melanoma is 42.7 µM; with NCI/ADR-RES ovarian it was greater than 100 µM; with PC-3 prostate, greater than 100 µM; with RXF 393 renal, 93.6 µM; in the assay on SF-268 CNS it was greater than 100 µM; in the assay on SF-539 CNS, greater than 100 µM. Besides, the figures for the TGI with SK-MEL-28 melanoma, in the assay with UACC-257 melanoma and in the assay with UACC-62 melanoma were 44.7 µM, greater than 100 µM and 29 µM, respectively.

As to `CC12CCC([C@H](C(O)C3CCCCC3)C1=O)C2(C)C` (stereo partly specified), the TGI in the assay on CCRF-CEM leukemia, in the assay on HOP-62 NSCLC, in the assay with HOP-92 NSCLC, in the assay on KM12 colon, with LOX IMVI melanoma and in the assay with M14 melanoma was greater than 100 µM throughout. For the same compound, the TGI in the assay with NCI-H226 lung, in the assay on NCI/ADR-RES ovarian, in the assay on PC-3 prostate, in the assay on RXF 393 renal, with SF-268 CNS and with SF-539 CNS was greater than 100 µM each time. For the same compound, the TGI in the assay with UACC-257 melanoma and in the assay with UACC-62 melanoma was greater than 100 µM each time.

In the case of `CC1=CC(=O)N(n2c(Cc3ccccc3)n[nH]c2=O)C1=O`, the TGI in the assay with CCRF-CEM leukemia is 62.7 µM; with HOP-92 NSCLC it was greater than 100 µM; in the assay on KM12 colon, greater than 100 µM; in the assay on LOX IMVI melanoma, greater than 100 µM; with M14 melanoma, greater than 100 µM; with MALME-3M melanoma it was greater than 100 µM. Further, the TGI with NCI-H226 lung, with NCI/ADR-RES ovarian, with PC-3 prostate, with RXF 393 renal, in the assay on SF-268 CNS and in the assay on SF-539 CNS was greater than 100 µM each time. In addition, the TGI in the assay with UACC-257 melanoma and with UACC-62 melanoma was greater than 100 µM in each case.

Turning to `COC(=O)C1=C(C(=O)OC)c2cc(OC)ccc2C(C(=S)N(C)C)S1` (stereo unspecified), the TGI in the assay with HOP-62 NSCLC, in the assay on HOP-92 NSCLC, in the assay on KM12 colon, in the assay on LOX IMVI melanoma, in the assay with M14 melanoma and with MALME-3M melanoma was greater than 100 µM each time. Further, the TGI in the assay with NCI-H226 lung, in the assay on NCI/ADR-RES ovarian, in the assay on PC-3 prostate, in the assay with RXF 393 renal, with SF-268 CNS and with SK-MEL-28 melanoma was greater than 100 µM throughout. The TGI in the assay with UACC-257 melanoma and in the assay on UACC-62 melanoma was greater than 100 µM throughout.

For the compound `CNC(=O)N1CN(c2ccccc2)C2(CCN(CCCC3(c4ccc(F)cc4)OCCO3)CC2)C1=O`, the TGI in the assay on CCRF-CEM leukemia, in the assay with HOP-62 NSCLC, with HOP-92 NSCLC, with KM12 colon, in the assay with LOX IMVI melanoma and with M14 melanoma was greater than 100 µM throughout. The TGI in the assay on MALME-3M melanoma, in the assay with NCI-H226 lung, in the assay with NCI/ADR-RES ovarian, in the assay on PC-3 prostate, in the assay with RXF 393 renal and with SF-268 CNS was greater than 100 µM throughout. Also, the TGI in the assay on SF-539 CNS, in the assay on SK-MEL-28 melanoma and with UACC-62 melanoma was greater than 100 µM each time.

As to `O=c1oc2cc(O)ccc2c(O)c1C(c1ccccc1F)c1c(O)c2ccc(O)cc2oc1=O`, the TGI with HOP-62 NSCLC, in the assay on HOP-92 NSCLC, in the assay on KM12 colon, with LOX IMVI melanoma, in the assay with M14 melanoma and with NCI-H226 lung was greater than 100 µM each time. Also, the TGI in the assay on NCI/ADR-RES ovarian, in the assay on PC-3 prostate, with RXF 393 renal, in the assay with SF-268 CNS, with SF-539 CNS and in the assay with SK-MEL-28 melanoma was greater than 100 µM each time. For the same compound, the TGI with UACC-257 melanoma and with UACC-62 melanoma was greater than 100 µM throughout.
